Measurements published in publication PMC2978498 (Angewandte Chemie (International ed. in English), 2009).
Each block holds one molecule with its values, some of them ahead of it. No end group written: not given here.

Columns and labels:
[1] = biological target: T1, Dvl PDZ domain (Dvl1 PDZ) (Mus musculus, UniProt P51141); test: fluorescence polarization competition with Rox-DprC peptide; format: binding
T1 sequence (P51141 248-337): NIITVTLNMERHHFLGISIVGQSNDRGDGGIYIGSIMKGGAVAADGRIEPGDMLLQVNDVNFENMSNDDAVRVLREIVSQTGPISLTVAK

[2] = biological target: T1, Dvl PDZ domain (Dvl1 PDZ); test: binding test shown only in supplement
[3] = biological target: T2, Dapper C-terminal peptide (Rox-DprC) (Xenopus laevis); test: fluorescence polarization
T2 chain: Rox-SGSLKLMTTV

- Ki [1]: 8 ± 0.2 µM
Molecule: CC1=C(CC(=O)O)c2cc(F)ccc2/C1=C\c1ccc(S(C)(=O)=O)cc1 [sulindac sulfone]

Molecule: CSc1ccc(/C=C2/C(C)=C(CC(=O)O)c3cc(F)ccc32)cc1 [sulindac sulfide]
- binding test shown only in supplement [2]: binds to the PDZ domain with much weaker affinity (Figure S6)

- Ki [1]: 10.7 ± 1.2 µM
Molecule: CC1=C(CC(=O)O)c2cc(F)ccc2/C1=C\c1ccc([S@@+](C)[O-])cc1 [sulindac]

- Kd [3]: ~8 µM
B1: Dishevelled PDZ domain (Dvl1) PDZ (protein)
chain: NIITVTLNMERHHFLGISIVGQSNDRGDGGIYIGSIMKGGAVAADGRIEPGDMLLQVNDVNFENMSNDDAVRVLREIVS
